From patent US12291508B2, “Hydrazide containing nuclear transport modulators and uses thereof” (Karyopharm Therapeutics Inc., priority 2011, dated 2025)
Where a name gives a salt, the structure may show the parent alone. Read-outs that look alike come from different tables or passages of the source.

How the values were obtained:
[1] = test system: MDA-MB-468 triple negative breast cancer cells; conditions: oral, day 33 post inoculation
Procedure: MDA-MB-468 (ATCC #HTB-132)triple negative breast cancer cells were obtained from ATCC. These cells were grown in Leibovitz's L-15 medium supplemented with 10% fetal calf serum (FCS), 1% penicillin and streptomycin, and 2 mM L-glutamine. Cells were sub-cultured by dilution at a ratio of 1:3. Fifty (50) female SCID mice (Charles River Labs), aged 5 to 6 weeks, with a mean pre-treatment body weight of 19.2 grams were used. SCID mice were inoculated s.c. in the left flank with 5×10^6 MDA-MB-468 cells. When the tumors reached a mean size of between 100 and 200 mm^3, mice were randomly and prospectively divided into a vehicle control group of ten (10) mice and five treatment groups of eight (8) mice per group.
All administrations were via the oral route. Animals were fed with sterile Labdiet® 5053 (pre-sterilized) rodent chow and sterile water was provided ad libitum. Tumors were measured once every two days with micro-calipers, and tumor volume was calculated as (length×width×width)/2. All animals were weighed every day in order to assess differences in weight among treatment groups and monitor wellness of animals. […] Any animals with a tumor over 1500 mm^3 in volume were also euthanized. Survival was recorded daily. […] Statistical differences between treatment groups were determined using Mann-Whitney Rank Sum or ANOVA tests with a critical value of 0.05.

HS578T = assay: Cell proliferation assay, HS578T; assay type: cell-based; conditions: Homo sapiens, Hs-578T, type BaB, 72 h
Procedure: The cells were seeded at 5×10^3 to 1.5×10^4 cells (depending on cell type) in each well of a 96-well plate in 100 μL of fresh culture medium and adherent cells were allowed to attach overnight. The stock solutions of the compounds were diluted in cell culture medium to obtain eight concentrations of each drug, ranging from 1 nM to 30 μM and DMSO at less than 1% v/v was used as a negative control. The resulting drug solutions were transferred onto the cells. After 72 h of treatment, 20 μl of CellTiter 96® AQueous reagent was added into each well of the 96-well assay plates and the plate was incubated at 37° C. for 1-4 hours in a humidified, 5% CO2 atmosphere. Then the absorbance of each well was recorded at 490 nm using a 96-well plate reader. In most cases, the assay was performed in triplicate and the results were presented as half maximal inhibitory concentration (IC50).

HS578T TNBC cells = assay: Apoptosis marker immunoblot, HS578T; assay type: cell-based; conditions: 0 to 10 μM, 24 hours
Procedure: MDA-MB-468 TNBC, DU4475 and HS578T TNBC cells were exposed to concentrations of Compound 1-3 ranging from 0 to 10 μM for 24 hours. After 24 hours, whole protein cell extracts were run on immunoblots and were exposed to antibodies against the proteins indicated in FIGS. 2A-2C.

[2] = test system: antibody-induced male BALB/c arthritic mice; assay: Monoclonal-antibody induced arthritis (CAIA); assay type: in vivo; conditions: 4, 7.5, 15 mg/kg PO, Day 4, 6, 8, 10
Procedure: The health status of the animals was examined on arrival. Only animals in good health were acclimatized to laboratory conditions and were used in the study. Animals were provided ad libitum a commercial rodent diet and free access to drinking water, supplied to each cage via polyethylene bottles with stainless steel sipper tubes. Automatically controlled environmental conditions were set to maintain temperature at 20-24° C. with relative humidity (RH) of 30-70%, a 12:12 hour light:dark cycle and 10-30 air changes/hr in the study room Temperature, RH and light cycle were monitored daily by the control computer. Animals were given a unique animal identification number and on Day 0 of the study each animal received a tail vein injection of antibody cocktail (200 uL of 10 mg/mL). The antibody cocktail was supplied by MD Biosciences (Catalog #: CIA-MAB-50). On day 3, post the single mAb administration, all animals were subjected to LPS (200 uL of 0.5 mg/mL) administration by a single intraperitoneal (IP) injection. […]
Animals found in a moribund condition, animals with broken skin on an arthritic paw, or with a greater than a 20% decrease in body weight and animals showing severe pain and enduring signs of severe distress were humanely euthanized. Severe pain or distress was assessed on a case by case basis by experienced animal technicians. […]

[3] = test system: PMA-induced male BALB/c psoriatic mice; assay type: in vivo; conditions: 10 mg/kg oral, M-W-F
Procedure: BALB/c mice were housed in individually ventilated cages in a controlled environment (temperature 22±1° C., humidity 70±5%, and 12 h light/12 h dark cycle) in the animal facility. The mice had access to commercially available feed pellets and UV-treated potable water ad libitum. 4 mice were housed per individually ventilated cage. Each animal in the cage was identified by a tail. 8 mice per group mice were randomized into different treatment groups according to body weight. Following randomization the mean body weight for all groups was equivalent. Study design was Group 1: Naïve, 1% DMSO vehicle (10-30 ul, topical once daily), Group 2: PMA, 1% DMSO vehicle (10-30 ul, topical once daily), Group 3: PMA, 1-4 10 mg/kg in PVP/Pluronics (oral, M-W-F; Day 1-Day 3-Day 5-Day 7), Group 4: PMA, 0.1% betamethasone—25 mg (reference standard) (topical once daily)
4 ug Phorbol 12-myristate 13-acetate (PMA) in 20 uL of acetone was applied every day to mouse ears. Starting from Day 2, PMA-induction of dermal inflammation/psoriasis manifested with increases in clinical disease activity index associated with increased thickness of ear, scaling of ear-skin, and folding of ear-skin. The following parameters were evaluated: (i) the thickness of the ear, (ii) scaling on the skin of ear. This will be based on a scoring index—0, no scaling; 1, mild scaling; 2, moderate scaling; 3, severe scaling. […]

| Structure (SMILES) | inhibition of tumor growth compared with vehicle-treated animals ([1]; 5 mg/kg Monday, Wednesday, Friday) | inhibition of tumor growth compared with vehicle-treated animals ([1]; 25 mg/kg Monday, Thursday regimen) | IC50 (HS578T) | apoptosis (cleaved PARP, cleaved caspase 3) (HS578T TNBC cells) | mean body weight (rate of weight gain) ([2]; compared to vehicle or dexamethasone) | mean total paw clinical arthritic score ([2]; compared with vehicle) | efficacy relative to positive control betamethasone [3] | mean ear thickness ([3]; compared to vehicle) |
| --- | --- | --- | --- | --- | --- | --- | --- | --- |
| O=C(/C=C\n1cnc(-c2cc(C(F)(F)F)cc(C(F)(F)F)c2)n1)NNc1cnccn1 [Compound I-3, (Z)-3-(3-(3,5-bis(trifluoromethyl)phenyl)-1H-1,2,4-triazol-1-yl)-N′-(pyrazin-2-yl)acrylohydrazide] | approximately 60% | ~100% | 1500 nM | only a negligible increase in cleaved PARP and cleaved caspase 3 | – | – | – | – |
| O=C(/C=C\n1cnc(-c2cc(C(F)(F)F)cc(C(F)(F)F)c2)n1)NNc1ccccn1 [Compound I-4, (Z)-3-(3-(3,5-bis(trifluoromethyl)phenyl)-1H-1,2,4-triazol-1-yl)-N′-(pyridin-2-yl)acrylohydrazide hydrochloride] | – | – | – | – | increased the rate of weight gain | significantly decreased the total score | comparable to positive control betamethasone | reduced mean ear thickness in a statistically significant manner |
